Test results published in article PMC8069832, “New Amides and Phosphoramidates Containing Selenium: Studies on Their Cytotoxicity and Antioxidant Activities in Breast Cancer” (Antioxidants, 2021).

Experiments:
HT-29 = test: cells; conditions: Homo sapiens, HT-29, 48 h; for activity at 10 µM: read-out: Cell growth (%) HT-29; for GI50: read-out: GI50 HT-29; for CC50: read-out: LC50 HT-29; for IC (TGI): read-out: TGI HT-29
MCF-7 = test: cells; conditions: Homo sapiens, MCF7, 48 h; for activity at 10 µM: read-out: Cell growth (%) MCF-7; for GI50: read-out: GI50 MCF-7, 48 h, average ± SEM; for CC50: read-out: LC50 MCF-7; for IC (TGI): read-out: TGI MCF-7
CCRF-CEM = test: cells; conditions: Homo sapiens, 48 h; for activity at 10 µM: read-out: Cell growth (%) CCRF-CEM; for GI50: read-out: GI50 CCRF-CEM; for CC50: read-out: LC50 CCRF-CEM; for IC (TGI): read-out: TGI CCRF-CEM
184B5 = test: MTT cytotoxicity in nonmalignant mammary gland derived cells; format: cell-based; conditions: for GI50 / IC (TGI): Homo sapiens, 184B5, nonmalignant cells, 48 h; for GI50: read-out: GI50 184B5; for IC (TGI): read-out: TGI 184B5; for Selectivity index (SI) = GI50 (184B5)/GI50 (MCF-7): breast
Protocol: (§1) Cell lines were provided by the European Collection of Cell Cultures (ECACC) or by the American Type Culture Collection (ATCC). Seven cell lines were used: MCF-7 (breast adenocarnicoma), 184B5 (nonmalignant, mammary gland derived), CCRF-CEM (lymphoblastic leukemia), HT-29 (colon carcinoma), HTB-54 (lung carcinoma), BEAS-2B (nonmalignant, derived from the bronchial epithelium) and PC-3 (prostate carcinoma). MCF-7, CCRF-CEM, HT-29, HTB-54, BEAS-2B and PC-3 cell lines were grown in RPMI medium (Gibco) supplemented with 10% fetal bovine serum (FBS; Gibco), 100 units/mL penicillin and […] streptomycin (Gibco). 184B5 cells were grown in DMEM/F12 medium supplemented with 5% FBS, 1 × ITS (Lonza), 100 nM hydrocortisone (Aldich), 2 mM sodium pyruvate (Lonza), 20 ng/mL EGF (Sigma-Aldrich), 0.3 nM trans-retinoic acid (Sigma-Aldrich), 100 units/mL penicillin and […] streptomycin. Cells were maintained at 37 °C and 5% CO2.
(§2) The cytotoxic effect of each substance was tested by the MTT method. Each compound was initially dissolved in DMSO at a concentration of 0.01 M, and serial dilutions were prepared with nonsupplemented medium. The cytotoxic effect of each compound was tested at 50 and 10 µM as a first screening. […]
(§3) A total of 1 × 10^4 cells/well in 96-well plates were treated with increasing concentrations of the corresponding compounds for 48 h at 37 °C in a humidified atmosphere containing 5% CO2. Then, cells were incubated with 50 µL of MTT (2 mg/mL stock) for 4 h. The medium was then removed by aspiration, and the formazan crystals were dissolved in […] of DMSO. […] Data were obtained from at least 3 independent experiments performed in quadruplicate. The standard error of the means (SEM) for the cytotoxic parameters was calculated applying the standard deviation formula to the mean values of each parameter for the three independent experiments performed.
(§4) . Cisplatin was used as a standard drug. […]. […] The presence of electron-withdrawing groups (-NO2, -CF3, -Cl) in the phenyl ring favored the cytotoxic activity in the amides, but in the phosphoramidates, the best results were obtained for aliphatic chains methoxy (II.1b, II.2b) and ethoxy (II.1d, II.2d). […].
(§5) The lack of selectivity toward cancerous cells is one of the major issues during the discovery and development of new anticancer agents. Therefore, we evaluated the cytotoxic activity of our compounds against two cell lines derived from nonmalignant breast tissue (184B5) and no malignant bronchial epithelium (BEAS-2B) (Table 2). […].

[1] = as above; format: cell-based; conditions: human
Protocol: as §1, §2, §3, §4, §5

[2] = MTT cytotoxicity in nonmalignant bronchial epithelium cells; format: cell-based; conditions: human
Protocol: as §1, §2, §3, §4, §5

BEAS-2B = test: as above; format: cell-based; conditions: for GI50 / IC (TGI): Homo sapiens, BEAS-2B, nonmalignant cells, 48 h; for GI50: read-out: GI50 BEAS-2B; for IC (TGI): read-out: TGI BEAS-2B
Protocol: as §1, §2, §3, §4, §5

PC-3 = test: cells; format: cell-based; conditions: Homo sapiens; for LC50: PC-3, 48 h, read-out: LC50 PC-3; for GI50 / IC (TGI): PC-3, 48 h, average ± SEM; for GI50: read-out: GI50 PC-3; for IC (TGI): read-out: TGI PC-3
Protocol: as §1, §2, §3, §4

HTB-54 = test: cells; format: cell-based; conditions: Homo sapiens; for CC50: HTB-54, 48 h, read-out: LC50 HTB54; for GI50 / IC (TGI): HTB-54, 48 h, average ± SEM; for GI50: read-out: GI50 HTB54; for IC (TGI): read-out: TGI HTB54
Protocol: as §1, §2, §3, §4

**Q.** With `O=C(Nc1ccc([Se][Se]c2ccc(NC(=O)c3ccccc3)cc2)cc1)c1ccccc1` [I.1a] as the molecule, how does the activity at 10 µM (HT-29) read?
**A.** 82.6%

**Q.** And the activity at 10 µM (MCF-7)?
**A.** 79.7%

**Q.** And the activity at 10 µM (CCRF-CEM)?
**A.** 103%

**Q.** With `O=C(Nc1ccc([Se][Se]c2ccc(NC(=O)c3ccc(Cl)cc3)cc2)cc1)c1ccc(Cl)cc1` [I.1b] as the molecule, how does the GI50 (184B5) read?
**A.** 7.08 µM

**Q.** And the IC (TGI) (184B5)?
**A.** > 100 µM

**Q.** And the “Selectivity index (SI) = GI50 (184B5)/GI50 (MCF-7)” value (184B5)?
**A.** 1.57

**Q.** What about the LC50 (50% lethal concentration) at 48 h [1] of the same molecule?
**A.** > 100 µM

**Q.** And the LC50 (50% lethal concentration) at 48 h [2]?
**A.** > 100 µM

**Q.** What about the GI50 (BEAS-2B) of the same molecule?
**A.** 1.11 µM

**Q.** And the IC (TGI) (BEAS-2B)?
**A.** 42.8 µM

**Q.** And the LC50 (PC-3)?
**A.** > 100 µM

**Q.** And the GI50 (PC-3)?
**A.** 7.7 ± 2.2 µM

**Q.** What about the IC (TGI) (PC-3) of the same molecule?
**A.** > 100 µM

**Q.** And the CC50 (HTB-54)?
**A.** > 100 µM

**Q.** And the GI50 (HTB-54)?
**A.** > 100 µM

**Q.** And the IC (TGI) (HTB-54)?
**A.** > 100 µM

**Q.** What about the activity at 10 µM (HT-29) of the same molecule?
**A.** -10.7%

**Q.** And the GI50 (HT-29)?
**A.** 3 ± 1.8 µM

**Q.** And the CC50 (HT-29)?
**A.** > 100 µM

**Q.** What about the IC (TGI) (HT-29) of the same molecule?
**A.** 7.7 ± 0.6 µM

**Q.** What about the activity at 10 µM (MCF-7) of the same molecule?
**A.** 19.8%

**Q.** What about the GI50 (MCF-7) of the same molecule?
**A.** 4.6 ± 0.5 µM

**Q.** And the CC50 (MCF-7)?
**A.** > 100 µM

**Q.** And the IC (TGI) (MCF-7)?
**A.** > 100 µM

**Q.** And the activity at 10 µM (CCRF-CEM)?
**A.** 45.5%

**Q.** What about the GI50 (CCRF-CEM) of the same molecule?
**A.** 9 ± 1.6 µM

**Q.** And the CC50 (CCRF-CEM)?
**A.** > 100 µM

**Q.** And the IC (TGI) (CCRF-CEM)?
**A.** 72.6 ± 1.1 µM

**Q.** What does the source list for `COc1ccc(C(=O)Nc2ccc([Se][Se]c3ccc(NC(=O)c4ccc(OC)cc4)cc3)cc2)cc1` [I.1c]?
**A.** activity at 10 µM (HT-29): 81.4%; activity at 10 µM (MCF-7): 79%; activity at 10 µM (CCRF-CEM): 57.5%

**Q.** For `N#Cc1ccc(C(=O)Nc2ccc([Se][Se]c3ccc(NC(=O)c4ccc(C#N)cc4)cc3)cc2)cc1` [I.1d], which activity at 10 µM (HT-29) is on record?
**A.** 109%

**Q.** What about the activity at 10 µM (MCF-7) of the same molecule?
**A.** 79.1%

**Q.** And the activity at 10 µM (CCRF-CEM)?
**A.** 101%

**Q.** Which results are given for `O=C(Nc1ccc([Se][Se]c2ccc(NC(=O)c3ccco3)cc2)cc1)c1ccco1` [I.1h]?
**A.** GI50 (184B5): 19.9 µM; IC (TGI) (184B5): 47.2 µM; Selectivity index (SI) = GI50 (184B5)/GI50 (MCF-7) (184B5): 1.11; LC50 (50% lethal concentration) at 48 h [1]: 74.4 µM; LC50 (50% lethal concentration) at 48 h [2]: 70.7 µM; GI50 (BEAS-2B): 10.6 µM; IC (TGI) (BEAS-2B): 40.6 µM; Selectivity index (SI) = GI50 (BEAS-2B)/GI50 (HTB-54) (BEAS-2B; lung): 0.51; LC50 (PC-3): 65.6 ± 4.1 µM; GI50 (PC-3): 2.3 ± 0.3 µM; IC (TGI) (PC-3): 27.6 ± 2.8 µM; CC50 (HTB-54): 76.3 ± 3.6 µM; GI50 (HTB-54): 20.8 ± 2.5 µM; IC (TGI) (HTB-54): 48.6 ± 1.8 µM; activity at 10 µM (HT-29): 62.1%; GI50 (HT-29): 17.4 ± 1.9 µM; CC50 (HT-29): 74.3 ± 0.7 µM; IC (TGI) (HT-29): 45.8 ± 1.2 µM; activity at 10 µM (MCF-7): 63.5%; GI50 (MCF-7): 18 ± 2.3 µM; CC50 (MCF-7): 76.6 ± 2.5 µM; IC (TGI) (MCF-7): 47.3 ± 2.4 µM; activity at 10 µM (CCRF-CEM): 34.1%; GI50 (CCRF-CEM): 4.1 ± 2.4 µM; CC50 (CCRF-CEM): 72.8 ± 2.9 µM; IC (TGI) (CCRF-CEM): 36.1 ± 1.4 µM

**Q.** What does the source list for `O=C(Nc1ccc([Se][Se]c2ccc(NC(=O)c3cccs3)cc2)cc1)c1cccs1` [I.1i]?
**A.** activity at 10 µM (HT-29): 98.2%; activity at 10 µM (MCF-7): 104%; activity at 10 µM (CCRF-CEM): 100%

**Q.** For `O=C(Nc1ccc([Se][Se]c2ccc(NC(=O)c3ccno3)cc2)cc1)c1ccno1` [I.1j], which activity at 10 µM (HT-29) is on record?
**A.** 98.9%

**Q.** What about the activity at 10 µM (MCF-7) of the same molecule?
**A.** 92.2%

**Q.** And the activity at 10 µM (CCRF-CEM)?
**A.** 112%

**Q.** With `O=C(Nc1ccc([Se][Se]c2ccc(NC(=O)C34CC5CC(CC(C5)C3)C4)cc2)cc1)C12CC3CC(CC(C3)C1)C2` [I.1k] as the molecule, how does the activity at 10 µM (HT-29) read?
**A.** 97.1%

**Q.** What about the activity at 10 µM (MCF-7) of the same molecule?
**A.** 88%

**Q.** And the activity at 10 µM (CCRF-CEM)?
**A.** 90.2%

**Q.** Which results are given for `O=C(/C=C/c1ccccc1)Nc1ccc([Se][Se]c2ccc(NC(=O)/C=C/c3ccccc3)cc2)cc1` [I.1l]?
**A.** activity at 10 µM (HT-29): 93%; activity at 10 µM (MCF-7): 76.7%; activity at 10 µM (CCRF-CEM): 50%

**Q.** With `O=C(Nc1ccc([Se][Se]c2ccc(NC(=O)c3cccc4ccccc34)cc2)cc1)c1cccc2ccccc12` [I.1m] as the molecule, how does the activity at 10 µM (HT-29) read?
**A.** 78.8%

**Q.** What about the activity at 10 µM (MCF-7) of the same molecule?
**A.** 75.5%

**Q.** And the activity at 10 µM (CCRF-CEM)?
**A.** 74.4%

**Q.** What does the source list for `N#C[Se]c1ccc(NC(=O)c2ccccc2)cc1` [I.2a]?
**A.** activity at 10 µM (HT-29): 71.6%; activity at 10 µM (MCF-7): 63.7%; activity at 10 µM (CCRF-CEM): 103%

**Q.** Which activity at 10 µM (HT-29) does the source give for `COc1ccc(C(=O)Nc2ccc([Se]C#N)cc2)cc1` [I.2c] here?
**A.** 93.3%

**Q.** What about the activity at 10 µM (MCF-7) of the same molecule?
**A.** 97.8%

**Q.** What about the activity at 10 µM (CCRF-CEM) of the same molecule?
**A.** 76.5%
